2 compounds from BindingDB's records for PubMed 35123298 (Comsats University Islamabad, 2022) can be followed below.

Structures are written as SMILES.

The nature of assay [1]: Negative allosteric modulation activity at human P2X4 receptor expressed in human 1321N1 cells assessed as ATP induced calcium response by measuring ATP EC50 at 40 nM.
Assay [2] is described as follows: Negative allosteric modulation activity at human P2X4 receptor expressed in human 1321N1 cells assessed as ATP induced calcium response by measuring ATP EC50 at 200 nM.
A short description of assay [3]: Negative allosteric modulation activity at human P2X4 receptor expressed in human 1321N1 cells assessed as ATP induced calcium response by measuring ATP EC50 at 100 nM.
A short description of assay [4]: Negative allosteric modulation activity at human P2X7 receptor expressed in human 1321N1 cells assessed as ATP induced calcium response by measuring ATP EC50 at 200 nM.
Assay [5] is described as follows: Negative allosteric modulation activity at human P2X7 receptor expressed in human 1321N1 cells assessed as ATP induced calcium response by measuring ATP EC50 at 100 nM.
The nature of assay [6]: Negative allosteric modulation activity at human P2X7 receptor expressed in human 1321N1 cells assessed as ATP induced calcium response by measuring ATP EC50 at 40 nM.

Turning to `CC(C)c1ccc(NC(=S)NC(=O)C23CC4CC(CC(C4)C2)C3)c(Br)c1`, the EC50 (as a rule, the concentration that produces a half-maximal response) in assay [1] came to 10.1 µM; in assay [2], 12.2 µM; in assay [3], 8.96 µM.

Regarding `O=C(NC(=S)Nc1cccc2cccnc12)C12CC3CC(CC(C3)C1)C2`, the figures for the EC50 in assay [4], in assay [5] and in assay [6] were 2.19 µM, 6.08 µM and 6.62 µM, respectively.
